From publication PMC2836207 (Journal of medicinal chemistry, 2009)

Target: MDA-MB-231 cells (Homo sapiens, UniProt P05556+P26006)
Assay: on-bead whole cell binding assay
Format: cell-based
Conditions: cell-growth-on-bead assay

Sequence of MDA-MB-231 cells (P26006 33-1051): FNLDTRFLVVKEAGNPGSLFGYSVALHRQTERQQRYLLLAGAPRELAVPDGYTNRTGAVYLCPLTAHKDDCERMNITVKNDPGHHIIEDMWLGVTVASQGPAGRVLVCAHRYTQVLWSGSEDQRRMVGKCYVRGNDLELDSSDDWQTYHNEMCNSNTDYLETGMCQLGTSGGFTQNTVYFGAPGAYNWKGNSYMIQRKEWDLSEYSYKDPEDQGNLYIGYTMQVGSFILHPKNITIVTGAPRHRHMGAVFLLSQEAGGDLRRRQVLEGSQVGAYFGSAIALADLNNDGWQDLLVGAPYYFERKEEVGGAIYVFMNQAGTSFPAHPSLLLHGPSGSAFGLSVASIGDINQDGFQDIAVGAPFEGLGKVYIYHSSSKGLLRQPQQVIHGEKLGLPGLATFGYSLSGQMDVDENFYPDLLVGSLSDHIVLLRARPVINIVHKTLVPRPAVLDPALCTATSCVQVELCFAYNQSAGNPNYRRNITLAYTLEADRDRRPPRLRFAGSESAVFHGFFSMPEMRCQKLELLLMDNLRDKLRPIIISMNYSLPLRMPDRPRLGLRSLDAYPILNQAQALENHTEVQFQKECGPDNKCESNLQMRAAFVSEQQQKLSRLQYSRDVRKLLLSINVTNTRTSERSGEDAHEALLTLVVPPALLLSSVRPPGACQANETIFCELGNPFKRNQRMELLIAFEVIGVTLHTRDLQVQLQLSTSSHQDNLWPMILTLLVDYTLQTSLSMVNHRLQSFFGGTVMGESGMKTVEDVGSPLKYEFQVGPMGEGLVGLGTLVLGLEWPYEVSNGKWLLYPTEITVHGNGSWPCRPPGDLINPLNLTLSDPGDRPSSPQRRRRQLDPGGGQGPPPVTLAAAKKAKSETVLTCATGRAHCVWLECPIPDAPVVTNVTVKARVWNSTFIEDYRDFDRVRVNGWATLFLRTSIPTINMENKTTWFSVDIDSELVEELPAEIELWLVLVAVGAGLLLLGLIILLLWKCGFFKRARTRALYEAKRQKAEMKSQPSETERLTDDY
Sequence of MDA-MB-231 cells (P05556 21-798): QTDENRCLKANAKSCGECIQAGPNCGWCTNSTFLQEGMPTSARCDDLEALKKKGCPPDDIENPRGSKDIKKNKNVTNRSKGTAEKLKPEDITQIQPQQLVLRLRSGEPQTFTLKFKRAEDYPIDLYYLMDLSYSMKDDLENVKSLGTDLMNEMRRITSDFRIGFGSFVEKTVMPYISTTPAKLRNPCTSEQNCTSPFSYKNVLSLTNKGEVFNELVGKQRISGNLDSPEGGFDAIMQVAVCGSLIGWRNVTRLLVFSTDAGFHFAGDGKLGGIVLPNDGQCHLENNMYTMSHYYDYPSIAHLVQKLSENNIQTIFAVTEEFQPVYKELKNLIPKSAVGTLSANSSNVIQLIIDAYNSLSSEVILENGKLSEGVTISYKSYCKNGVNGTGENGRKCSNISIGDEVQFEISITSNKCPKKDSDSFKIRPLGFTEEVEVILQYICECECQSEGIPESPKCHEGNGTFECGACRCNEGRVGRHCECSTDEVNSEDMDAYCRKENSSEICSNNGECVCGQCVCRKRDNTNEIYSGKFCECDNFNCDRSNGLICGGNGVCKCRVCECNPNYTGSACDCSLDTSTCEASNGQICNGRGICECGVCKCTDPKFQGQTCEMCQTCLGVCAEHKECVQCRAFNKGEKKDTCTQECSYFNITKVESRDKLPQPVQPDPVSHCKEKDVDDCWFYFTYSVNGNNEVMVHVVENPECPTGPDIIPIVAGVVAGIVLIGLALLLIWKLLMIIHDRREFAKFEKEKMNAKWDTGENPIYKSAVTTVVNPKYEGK

cell binding to peptide bead: shown to bind
Substance: cEGLGEWc
